Assays:
Type in all cases: cell-based
[1] = tested on: HEK 293T eGFP reporter cells (VP-PYL and GAL4DBD-ABI); experiment: H2O2-induced eGFP expression (transcriptional activation)
Source text: To determine if the ABA generated from the H2O2-induced cleavage of ABA-HP is biologically active, we tested whether it could induce downstream biological processes. We first investigated H2O2-induced transcriptional activation using an HEK 293T stable cell line, in which enhanced GFP (eGFP) expression occurs only in the presence of functional ABA. The cell line was created with both the ABA-responsive split transcriptional activator DNA fragment (VP-PYL and GAL4DBD-ABI linked by IRES; Liang et al., 2011, Sci. Signal. 4, rs2) and an inducible eGFP DNA fragment (with 5×UAS) inserted into the genome (FIG. 2a).
We tested the response of our system to H2O2 at physiologically relevant concentrations under cell culture conditions. The eGFP reporter cells were treated with no drug, or 10 μM of ABA, ABA-HP, or ABA-HP exposed to H2O2 (1, 5 or 10 eq) for five to 24 hours. The expression of eGFP was monitored at specific time points using a fluorescence microscope. […] Alternatively, for cellular experiments, cell culture media can be exchanged regularly with media containing fresh ABA-HP and thus restrict the build-up of esterase-cleaved ABA.
EGFP expression experiments: HEK 293T (GFP) cells were seeded 24 hours prior to treatment in 24-well plates at 100 K/well. 10 μM ABA-HP was added to the cells 10 minutes prior to the addition of 10 μM ABA and 10, 50, or 100 μM of H2O2. Images were taken for living cells at 5 hours, 7 hours, 10 hours and 24 hours.
(§1) An Axio Observer D1 fluorescent microscope (Carl Zeiss AG, Oberkochen, Germany) outfitted with HBO 100 microscopy illumination system (Carl Zeiss AG, Oberkochen, Germany; GFP: excitation 470/40 and emission 525/50) was used to analyze GFP expression and NES localization. A 20× objective was used to analyze GFP expression. A 63× objective was used for NES localization.

[2] = tested on: NES-ABI and PYL-eGFP in CHO cells; experiment: H2O2-induced ABA-mediated eGFP nuclear exporting (NES localization)
Description: Various cellular events are regulated by the dynamic sub-cellular translocation of proteins. To test if protein translocation can be controlled by H2O2, we used a known ABA-inducible eGFP nuclear exporting system consisting of NES-ABI and PYL-eGFP DNA constructs (FIG. 2a; Liang et al., 2011, Sci. Signal. 4, rs2). CHO cells were transfected with both plasmids for 24 hours and then incubated without additive, or with 10 μM of ABA, ABA-HP, or ABA-HP plus 10 eq of H2O2 for one hour.
NES localization experiments: CHO cells were seeded in 24-well plates at 50 K/well with coverslip for 24 hours. 0.4 μg NES-ABI and 0.2 μg eGFP-PYL (FIG. 2a, ii) of DNA plasmid were used for each well, with 30 μL of Opti-MEM (Life Technologies, Carlsbad, Calif.) and 1.8 μL of PEI. After incubation at room temperature for 15 min, the mixture was added to the cells and cultured for 24 hours. Then, 10 μM ABA-HP was added to the cells 10 minutes prior to the addition of 10 μM ABA and 100 μM of H2O2, or 10 μM GA-HP was added to the cells 10 minutes prior to the addition of 10 μM GA-AM and 100 μM of H2O2. Slides were made 30 minutes after addition of compounds and images were taken the next day.
as §1

[3] = tested on: myr-ABI and PYL-eGFP-Tiam1 in CHO cells; experiment: H2O2-induced ruffle formation (Tiam1 membrane localization)
Source text: To further investigate whether a complex biological process can be triggered by H2O2-induced protein dimerization, we examined the membrane ruffle formation resulting from localized Rho GTPase activation. Tiam1 is a guanine exchange factor for Rac, a member of Rho GTPase. The membrane translocation of Tiam1 activated Rac signaling pathway and induced ruffle formation, which is involved in cell migration and morphogenesis. We constructed an ABA-inducible Tiam1 membrane localization system, which consists of DNA plasmids encoding the membrane-localized ABI (myr-ABI; Liang et al., 2011, Sci. Signal. 4, rs2) and the cytoplasmic eGFP/PYL-fused Tiam1 (PYL-eGFP-Tiam1) (FIG. 2a). CHO cells were transfected with these plasmids for 24 hours and then incubated for one hour without additive, or with 10 μM of ABA, ABA-HP or ABA-HP plus 10 eq of H2O2. The ruffle formation in cells was analyzed by the confocal microscopy.
Ruffle generation experiment: CHO were seeded in 24-well plates at 50 K/well with coverslip for 24 hours. 0.1 μg PYL-eGFP-Tiam1 and 0.1 μg myr-ABI (FIG. 2a, iii) of DNA plasmid were used for each well, with 30 μL of Opti-MEM (Life Technologies, Carlsbad, Calif.) and 1.8 μL PEI. After incubation at room temperature for 15 min, the mixture was added to the cells and cultured for 24 hours. […]

[4] = tested on: CHO cells transfected with ABA-inducible luciferase constructs; experiment: ABA-inducible luciferase assay
[5] = 10 μM, compound alone, CHO cells
[6] = 10 μM plus 10 eq of H2O2, CHO cells

SMILES	eGFP expression ([1]; 10 μM, compound alone, after five hours)	sub-cellular location of PYL-eGFP [2, 5]	ruffle formation [3, 5]	dose dependence of gene expression ([4]; increasing dosages, not irradiated)	dose dependence of luciferase expression ([4]; increasing concentrations, with irradiation)	luciferase expression ([4]; irradiated 365 nm UV 120 seconds in cell culture, twelve hours)	eGFP expression ([1]; 10 μM plus H2O2 (1, 5 or 10 eq), after five hours)	dependence of eGFP expression on H2O2 level ([1]; 10 μM plus different amounts of H2O2)	eGFP expression ([1]; 10 μM, compound alone, extended incubation 24 hours)	eGFP expression ([1]; 10 μM, compound alone, no H2O2, within 10 hours)	stability within cells ([1]; 10 μM, no H2O2, inferred from absent eGFP expression)	sub-cellular location of PYL-eGFP [2, 6]	ruffle formation [3, 6]
CC1=CC(=O)CC(C)(C)C1(O)/C=C/C(C)=C\C(=O)O (centres unmarked) [ABA, abscisic acid, reference compound]	eGFP expression could be observed after five hours	localized out of the nucleus	showed obvious ruffle formation	dose-dependent induction of gene expression	–	–	–	–	–	–	–	–	–
COc1cc(COC(=O)/C=C(C)\C=C\[C@@]2(O)C(C)=CC(=O)CC2(C)C)c([N+](=O)[O-])cc1OC [ABA-DMNB]	–	–	–	–	corresponding increases in the level of luciferase expression	induced luciferase expression	–	–	–	–	–	–	–
CC1=CC(=O)CC(C)(C)[C@@]1(O)/C=C/C(C)=C\C(=O)OCc1ccc(B2OC(C)(C)C(C)(C)O2)cc1 [ABA-HP]	–	did not change the sub-cellular location of eGFP-PYL	–	–	–	–	eGFP expression could be observed after five hours	dose-dependent eGFP expression	eGFP expression was indeed observed	not observed within a 10-hour period	at least 10 hours	caused rapid nuclear export	showed obvious ruffle formation
